According to PubChem BioAssay (NCI):
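Five concentrations, 48 hours, 96-well plates. GI50 marks 50% less growth. The concentration for full growth arrest is given as TGI.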

How the values were obtained:
Test in all cases: NCI-60 cell line screen, 48 h
NCI/ADR-RES ovarian = test system: NCI/ADR-RES ovarian
OVCAR-5 ovarian = test system: OVCAR-5 ovarian
SK-MEL-5 melanoma = test system: SK-MEL-5 melanoma
MDA-MB-231 breast = test system: MDA-MB-231 breast
U251 CNS = test system: U251 CNS
UACC-62 melanoma = test system: UACC-62 melanoma
SN12C renal = test system: SN12C renal
HT29 colon = test system: HT29 colon
OVCAR-8 ovarian = test system: OVCAR-8 ovarian
LOX IMVI melanoma = test system: LOX IMVI melanoma
DU-145 prostate = test system: DU-145 prostate
MDA-MB-435 = test system: MDA-MB-435
HCT-116 colon = test system: HCT-116 colon
OVCAR-3 ovarian = test system: OVCAR-3 ovarian
SR leukemia = test system: SR leukemia
CCRF-CEM leukemia = test system: CCRF-CEM leukemia
NCI-H23 lung = test system: NCI-H23 lung
OVCAR-4 ovarian = test system: OVCAR-4 ovarian
NCI-H522 lung = test system: NCI-H522 lung
KM12 colon = test system: KM12 colon
MALME-3M melanoma = test system: MALME-3M melanoma
NCI-H460 lung = test system: NCI-H460 lung
UO-31 renal = test system: UO-31 renal
MOLT-4 leukemia = test system: MOLT-4 leukemia
A549 NSCLC = test system: A549 NSCLC
TK-10 renal = test system: TK-10 renal
BT-549 breast = test system: BT-549 breast

## CN(C)c1ccc(O)c2c1CC1CC3C(N(C)C)C(=O)C(C(N)=O)=C(O)C3(O)C(=O)C1=C2O (centres undefined)
NCI/ADR-RES ovarian
  GI50: 17.3 µM
  TGI: 73.6 µM
OVCAR-5 ovarian
  GI50: 15.6 µM
  TGI: > 100 µM
SK-MEL-5 melanoma
  GI50: 12 µM
  TGI: 28 µM
MDA-MB-231 breast
  GI50: 19.1 µM
  TGI: 47 µM
U251 CNS
  GI50: 6.84 µM
  TGI: 31.6 µM
UACC-62 melanoma
  GI50: 9.18 µM
  TGI: 22 µM
SN12C renal
  GI50: 18.1 µM
  TGI: 89.9 µM
HT29 colon
  GI50: 15.4 µM
  TGI: 42.9 µM
OVCAR-8 ovarian
  GI50: 9.84 µM
  TGI: 81.7 µM
LOX IMVI melanoma
  GI50: 6.21 µM
  TGI: 37.3 µM
DU-145 prostate
  GI50: 13.1 µM
  TGI: 59.1 µM
MDA-MB-435
  GI50: 17.9 µM
  TGI: > 100 µM
HCT-116 colon
  GI50: 11.6 µM
  TGI: > 100 µM
OVCAR-3 ovarian
  GI50: 12.8 µM
  TGI: 39 µM
SR leukemia
  GI50: 15.7 µM
  TGI: > 100 µM
CCRF-CEM leukemia
  GI50: 19.5 µM
  TGI: > 100 µM
NCI-H23 lung
  GI50: 15.2 µM
  TGI: 56 µM
OVCAR-4 ovarian
  GI50: 24.2 µM
  TGI: > 100 µM
NCI-H522 lung
  GI50: 13.6 µM
  TGI: 46 µM
KM12 colon
  GI50: 13.1 µM
  TGI: 32.2 µM
MALME-3M melanoma
  GI50: 16.3 µM
  TGI: 41.7 µM
NCI-H460 lung
  GI50: 10.6 µM
  TGI: 29.6 µM
UO-31 renal
  GI50: 7.47 µM
  TGI: 73 µM
MOLT-4 leukemia
  GI50: 22.6 µM
  TGI: 74.1 µM
A549 NSCLC
  GI50: 9.43 µM
  TGI: 59.2 µM
TK-10 renal
  GI50: 5.66 µM
  TGI: 35.5 µM
BT-549 breast
  GI50: 13.6 µM
  TGI: 45 µM
